Structures are written as SMILES.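 Dose response: 5 concentrations. Exposure: 48 h. Format: 96-well plates. Endpoint: linear interpolation; highest concentration if not reached. GI50 marks 50% less growth.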 Active and inactive are the calls of the source. No stated cut-off is given here; in the data, active = GI50 up to about 1.1 µM and inactive = higher.

Experiment in all cases: NCI-60 cell line screen, 48 h
Assay [1] relates to HCT-116.
Assay [2] has as its system UACC-62.
The test system of assay [3] is U-251.
In assay [4] the test system is SW-620.
For assay [5], the system named is SF-295.
Assay [6] concerns CCRF-CEM.
Assay [7] concerns HCC 2998.
For assay [8], the system named is M14.
Assay [9] concerns RXF 393.
In assay [10] the test system is MDA-MB-231.
The test system of assay [11] is OVCAR-8.
The subject of assay [12] is ACHN.
Assay [13] concerns HOP-62.
The subject of assay [14] is NCI-H522.
The test system of assay [15] is A498.
Assay [16] concerns KM12.
Assay [17] relates to SF-539.
In assay [18] the test system is SF-268.
Assay [19] deals with CAKI-1.
Assay [20] relates to SK-MEL-2.

For the compound `CCOC(=O)CSc1nc(N)c2c(-c3ccccc3)c3c(nc2n1)CCCC3`, the GI50 in assay [1], in assay [2], in [3], in assay [4], in [5] and in assay [6] was > 100 µM (inactive) throughout. In addition, the GI50 in assay [7], in assay [8], in assay [9], in [10], in assay [11] and in [12] was > 100 µM (inactive) in each case. The GI50 in assay [13], in assay [14], in assay [15], in assay [16], in [17] and in assay [18] was > 100 µM (inactive) throughout. The GI50 in [19] and in assay [20] was > 100 µM (inactive) throughout.
For `COC(=O)c1ccc2c(c1)S/C(=C/c1ccc3ccc4cccc5ccc1c3c45)S2`, the GI50 in assay [1] was 95.9 µM (inactive); in assay [2], 22.9 µM (inactive); in assay [3] it was 48.8 µM (inactive); in assay [4] it was 27.6 µM (inactive); in assay [5], 40.8 µM (inactive); in [6], 34.5 µM (inactive). Moreover, the GI50 in assay [7] is 89.3 µM (inactive); in assay [8] it was 32.1 µM (inactive); in [9], 50.4 µM (inactive); in [10], > 100 µM (inactive); in [11] it was 31.6 µM (inactive); in assay [12], > 100 µM (inactive). Moreover, the GI50 in [13] is 37.1 µM (inactive); in [14], 21 µM (inactive); in [15] it was 31.6 µM (inactive); in assay [16], 24.4 µM (inactive); in [17], > 100 µM (inactive); in assay [18], 32.1 µM (inactive). Moreover, the GI50 in assay [19] was 40.1 µM (inactive); in assay [20], > 100 µM (inactive).
With `CC(=O)O[C@H]1CCC2[C@@H]3CC[C@]4(C)CC(=O)C=C[C@]4(C)C3CC[C@@]21C` (stereo not given in full), the GI50 in [1] was 16.8 µM (inactive); in [2], 15.7 µM (inactive); in assay [3] it was 17.7 µM (inactive); in assay [4] it was 18.3 µM (inactive); in assay [5], 53.3 µM (inactive); in assay [6], 20.1 µM (inactive). In addition, the GI50 in assay [7] is 45.6 µM (inactive); in assay [8] it was 19.2 µM (inactive); in [9], 24.2 µM (inactive); in assay [10], 31.8 µM (inactive); in [11], 17.3 µM (inactive); in assay [12] it was 49 µM (inactive). The GI50 is 50.6 µM (inactive) in [13]; 24.6 µM (inactive) in assay [14]; 44.7 µM (inactive) in assay [15]; 20.6 µM (inactive) in [16]; 17.7 µM (inactive) in assay [17]; 21.2 µM (inactive) in assay [18]. The GI50 is 83.4 µM (inactive) in [19] and 20.8 µM (inactive) in assay [20].
Take `O=C1N[C@@H]([C@H]2CC[C@H](Cl)CN2)C(=O)N[C@H]1[C@H]1CC[C@H](Cl)CN1`: the GI50 in [1] is 0.743 µM (active); in assay [2] it was 0.137 µM (active); in assay [3], 0.406 µM (active); in [4], 0.962 µM (active); in assay [5] it was 0.169 µM (active); in assay [6], 0.152 µM (active). The GI50 in assay [7] was 0.923 µM (active); in assay [8], 0.158 µM (active); in [9], 2.04 µM (inactive); in [10] it was 0.925 µM (active); in [11] it was 0.853 µM (active); in assay [12], 0.1 µM (active). Moreover, the GI50 in assay [13] is 0.28 µM (active); in [14] it was 0.706 µM (active); in [15], 2.63 µM (inactive); in [16], 3.3 µM (inactive); in assay [17], 0.357 µM (active); in assay [18], 0.466 µM (active). The GI50 in [19] was 0.261 µM (active); in assay [20], 2.56 µM (inactive).
`C[C@H](CCC(=O)NCCS(=O)(=O)O)[C@H]1CC[C@H]2[C@@H]3[C@H](O)C[C@@H]4C[C@H](O)CC[C@]4(C)[C@H]3CC[C@]12C`: the GI50 in assay [1], in [2], in assay [3], in assay [4], in [5] and in [6] was > 100 µM (inactive) throughout. Besides, the GI50 in [7], in assay [8], in [9], in [10], in assay [11] and in assay [12] was > 100 µM (inactive) in each case. For the same compound, the GI50 in assay [13], in [14], in [15], in assay [16], in [17] and in [18] was > 100 µM (inactive) each time. For the same compound, the GI50 in assay [19] and in assay [20] was > 100 µM (inactive) each time.
As to `COc1cccc(-c2ccc3c4c2O[C@H]2c5[nH]c6ccccc6c5C[C@@]5(O)[C@@H](C3)N(CC3CC3)CC[C@]425)c1`, the GI50 in [1] was 1.63 µM (inactive); in assay [2], 1.67 µM (inactive); in assay [3], 1.77 µM (inactive); in assay [4], 1.93 µM (inactive); in assay [5] it was 1.71 µM (inactive); in assay [6], 3.29 µM (inactive). The GI50 is 1.53 µM (inactive) in assay [7]; 1.81 µM (inactive) in assay [8]; 1.66 µM (inactive) in assay [9]; 0.14 µM (active) in [10]; 1.65 µM (inactive) in assay [11]; 1.63 µM (inactive) in [12]. Besides, the GI50 in assay [13] is 1.74 µM (inactive); in assay [14] it was 1.15 µM (inactive); in [15] it was 2.19 µM (inactive); in assay [16], 1.85 µM (inactive); in assay [17], 1.78 µM (inactive); in assay [18], 1.61 µM (inactive). For the same compound, the GI50 in assay [19] is 2.1 µM (inactive); in assay [20], 1.69 µM (inactive).
In the case of `O=c1c2ccc(Cl)cc2oc2c(CNc3ccc(S(=O)(=O)Nc4nccs4)cc3)cccc12`, the GI50 is > 100 µM (inactive) in assay [1]; > 100 µM (inactive) in assay [2]; > 100 µM (inactive) in [3]; > 100 µM (inactive) in assay [4]; > 100 µM (inactive) in assay [5]; 91.6 µM (inactive) in assay [6]. The GI50 in assay [7] was > 100 µM (inactive); in [8], > 100 µM (inactive); in assay [9], > 100 µM (inactive); in assay [10], 98.6 µM (inactive); in assay [11], > 100 µM (inactive); in assay [12] it was > 100 µM (inactive). Also, the GI50 in assay [13] is > 100 µM (inactive); in [14] it was > 100 µM (inactive); in assay [15], > 100 µM (inactive); in assay [16], > 100 µM (inactive); in assay [17] it was 99.1 µM (inactive); in assay [18], > 100 µM (inactive). Also, the GI50 in [19] was 0.951 µM (active); in assay [20], > 100 µM (inactive).

The record behind these values is ChEMBL document CHEMBL1201862, “PubChem BioAssay data set” (2004).
